# Laboratory results from publication doi:10.64898/2026.05.07.723658, “Substrate-dependent crosslinking by the cytochrome P450 from aminopyruvatide biosynthesis” (bioRxiv, 2026).
# Where a SMILES comes first, the peptide text is derived from it. The star is where a group is joined. For = O=C*
# Assays:
# [1] = target: T1, angiotensin I-converting enzyme (ACE) (Oryctolagus cuniculus, UniProt P12822); test: biochemical; conditions: 15 min preincubation at room temperature; substrate Abz-FRK(Dnp)-P-OH; 37 °C
# T1 construct: purchased Sigma A6778
# T1 sequence (P12822 34-1310): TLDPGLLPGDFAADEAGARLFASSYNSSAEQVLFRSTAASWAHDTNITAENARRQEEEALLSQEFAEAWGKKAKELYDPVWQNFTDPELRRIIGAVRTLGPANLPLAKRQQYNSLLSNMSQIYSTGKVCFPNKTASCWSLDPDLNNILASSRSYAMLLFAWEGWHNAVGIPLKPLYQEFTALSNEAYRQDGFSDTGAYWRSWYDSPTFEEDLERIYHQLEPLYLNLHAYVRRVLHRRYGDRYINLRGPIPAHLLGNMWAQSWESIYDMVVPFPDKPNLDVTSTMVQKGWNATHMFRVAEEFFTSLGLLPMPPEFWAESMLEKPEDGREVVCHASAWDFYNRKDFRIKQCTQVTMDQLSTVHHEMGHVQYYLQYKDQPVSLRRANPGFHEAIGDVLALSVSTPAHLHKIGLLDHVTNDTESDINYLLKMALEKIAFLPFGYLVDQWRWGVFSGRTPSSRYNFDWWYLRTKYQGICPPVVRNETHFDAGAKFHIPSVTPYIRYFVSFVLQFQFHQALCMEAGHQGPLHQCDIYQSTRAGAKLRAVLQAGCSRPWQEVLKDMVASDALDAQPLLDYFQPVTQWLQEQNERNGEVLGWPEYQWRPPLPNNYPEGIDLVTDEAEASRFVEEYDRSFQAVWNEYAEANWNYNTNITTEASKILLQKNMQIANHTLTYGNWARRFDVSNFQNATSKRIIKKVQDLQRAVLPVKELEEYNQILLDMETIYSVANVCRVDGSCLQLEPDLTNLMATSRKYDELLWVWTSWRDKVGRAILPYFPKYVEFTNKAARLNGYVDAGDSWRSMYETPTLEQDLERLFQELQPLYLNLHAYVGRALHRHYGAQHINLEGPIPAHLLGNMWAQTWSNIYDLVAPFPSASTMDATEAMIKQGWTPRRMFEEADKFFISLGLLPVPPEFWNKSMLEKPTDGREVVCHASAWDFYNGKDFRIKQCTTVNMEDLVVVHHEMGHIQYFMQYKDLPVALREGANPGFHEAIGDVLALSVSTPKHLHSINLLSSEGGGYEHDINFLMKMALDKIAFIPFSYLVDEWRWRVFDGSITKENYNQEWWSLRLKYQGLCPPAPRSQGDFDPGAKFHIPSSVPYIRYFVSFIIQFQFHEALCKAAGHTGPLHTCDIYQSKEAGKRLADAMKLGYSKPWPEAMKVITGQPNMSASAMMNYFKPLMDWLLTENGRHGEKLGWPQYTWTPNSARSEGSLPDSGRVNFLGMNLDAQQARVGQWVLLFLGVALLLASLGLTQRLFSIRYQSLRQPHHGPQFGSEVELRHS
# [2] = system: cytochrome P450 ApyO
# [3] = target: T2, chymotrypsin (Bos taurus, UniProt P00766); type: biochemical
# T2 construct: purchased Promega V1061
# [4] = target: T3, main protease from SARS-CoV-2 virus (Mpro) (Severe acute respiratory syndrome coronavirus 2, UniProt P0DTD1); type: biochemical
# T3 construct: Cayman chemical) was used; purchased Cayman chemical 701960
# [5] = target: T4, trypsin (Sus scrofa, UniProt P00761); type: biochemical
# T4 construct: purchased Promega V5111
# T4 sequence (P00761 9-231): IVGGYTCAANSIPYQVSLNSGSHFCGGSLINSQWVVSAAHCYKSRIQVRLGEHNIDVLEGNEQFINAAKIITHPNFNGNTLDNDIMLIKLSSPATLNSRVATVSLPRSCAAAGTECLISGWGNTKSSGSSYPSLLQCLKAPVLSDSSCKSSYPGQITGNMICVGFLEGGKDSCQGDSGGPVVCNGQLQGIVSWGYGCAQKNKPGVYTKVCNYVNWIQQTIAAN
Compound,conversion by ApyO [2],also measured
"NCC(=O)N[C@H]1Cc2ccc(O)c(c2)Oc2ccc(cc2)C[C@@H](C(=O)N[C@@H](CC(=O)O)C(=O)O)NC(=O)[C@H](Cc2ccc(O)cc2)NC1=O (single isomer, unassigned) [L7Y isomer-2]",–,IC50 [1]: 1100 nM
"CSCC[C@H](NC=O)C(=O)N[C@@H](CCCNC(=N)N)C(=O)N[C@@H](CCSC)C(=O)NCC(=O)N[C@@H](CCC(=O)O)C(=O)NCC(=O)N[C@@H](Cc1ccc(O)cc1)C(=O)N[C@@H](CC(C)C)C(=O)N[C@@H](Cc1ccc(O)cc1)C(=O)N[C@@H](CC(=O)O)C(=O)O [ApyAct, MRMGEGYLYD] (For-MRMGEGYLYD-OH)",about 70%,–
CSCC[C@H](NC=O)C(=O)N[C@@H](CCCNC(=N)N)C(=O)N[C@@H](CCSC)C(=O)NCC(=O)N[C@@H](CCC(=O)O)C(=O)NCC(=O)N[C@@H](Cc1ccc(O)cc1)C(=O)N[C@@H](Cc1ccccc1)C(=O)N[C@@H](Cc1ccc(O)cc1)C(=O)N[C@@H](CC(=O)O)C(=O)O [L7F] (For-MRMGEGYFYD-OH),~ 8%,–
CSCC[C@H](NC=O)C(=O)N[C@@H](CCCNC(=N)N)C(=O)N[C@@H](CCSC)C(=O)NCC(=O)N[C@@H](CCC(=O)O)C(=O)NCC(=O)N[C@@H](Cc1ccc(O)cc1)C(=O)NCC(=O)N[C@@H](Cc1ccc(O)cc1)C(=O)N[C@@H](CC(=O)O)C(=O)O [L7G] (For-MRMGEGYGYD-OH),~ 1%,–
CC[C@H](C)[C@H](NC(=O)[C@H](Cc1ccc(O)cc1)NC(=O)CNC(=O)[C@H](CCC(=O)O)NC(=O)CNC(=O)[C@H](CCSC)NC(=O)[C@H](CCCNC(=N)N)NC(=O)[C@H](CCSC)NC=O)C(=O)N[C@@H](Cc1ccc(O)cc1)C(=O)N[C@@H](CC(=O)O)C(=O)O [L7I] (For-MRMGEGYIYD-OH),~ 60%,–
CSCC[C@H](NC=O)C(=O)N[C@@H](CCCNC(=N)N)C(=O)N[C@@H](CCSC)C(=O)NCC(=O)N[C@@H](CCC(=O)O)C(=O)NCC(=O)N[C@@H](Cc1ccc(O)cc1)C(=O)N[C@H](C(=O)N[C@@H](Cc1ccc(O)cc1)C(=O)N[C@@H](CC(=O)O)C(=O)O)[C@@H](C)O [L7T] (For-MRMGEGYTYD-OH),~ 3%,–
CSCC[C@H](NC=O)C(=O)N[C@@H](CCCNC(=N)N)C(=O)N[C@@H](CCSC)C(=O)NCC(=O)N[C@@H](CCC(=O)O)C(=O)NCC(=O)N[C@@H](Cc1ccc(O)cc1)C(=O)N[C@H](C(=O)N[C@@H](Cc1ccc(O)cc1)C(=O)N[C@@H](CC(=O)O)C(=O)O)C(C)C [L7V] (For-MRMGEGYVYD-OH),~ 57%,–
CSCC[C@H](NC=O)C(=O)N[C@@H](CCCNC(=N)N)C(=O)N[C@@H](CCSC)C(=O)NCC(=O)N[C@@H](CCC(=O)O)C(=O)NCC(=O)N[C@@H](Cc1ccc(O)cc1)C(=O)N[C@@H](Cc1c[nH]c2ccccc12)C(=O)N[C@@H](Cc1ccc(O)cc1)C(=O)N[C@@H](CC(=O)O)C(=O)O [L7W] (For-MRMGEGYWYD-OH),~ 39%,–
CSCC[C@H](NC=O)C(=O)N[C@@H](CCCNC(=N)N)C(=O)N[C@@H](CCSC)C(=O)NCC(=O)N[C@@H](CCC(=O)O)C(=O)NCC(=O)N[C@@H](Cc1ccc(O)cc1)C(=O)N[C@@H](Cc1ccc(O)cc1)C(=O)N[C@@H](Cc1ccc(O)cc1)C(=O)N[C@@H](CC(=O)O)C(=O)O [L7Y] (For-MRMGEGYYYD-OH),near quantitative,–
CSCC[C@H](NC=O)C(=O)N[C@@H](CCCCN)C(=O)N[C@@H](CCSC)C(=O)NCC(=O)N[C@@H](CCC(=O)O)C(=O)NCC(=O)N[C@@H](Cc1ccc(O)cc1)C(=O)N[C@@H](CC(C)C)C(=O)N[C@@H](Cc1ccc(O)cc1)C(=O)N[C@@H](CC(=O)O)C(=O)O [R1K] (For-MKMGEGYLYD-OH),~ 8%,–
CC(C)C[C@@H]1NC(=O)[C@@H](NC(=O)CN)Cc2ccc(O)c(c2)-c2cc(ccc2O)C[C@@H](C(=O)N[C@@H](C)C(=O)C(=O)O)NC1=O [desmethylaminopyruvatide A],–,inhibition of chymotrypsin [3]: No inhibition; inhibition of Mpro [4]: No inhibition; inhibition of trypsin [5]: No inhibition
